Experiment [1] deals with HEK293 cells (ATCC CRL-1573). The experiment is described as follows: Cellular growth inhibition assay, HEK293 cells (Example 16). The class given is cell-based. Conditions: Homo sapiens, 72 hours, CellTiter-Glo 2.0. As to the method:
(§1) Exemplary compounds were tested for ability to inhibit the proliferation of HEK293 cells (ATCC CRL-1573) and HeLa cells (ATCC CCL-2).
(§2) HEK293 and HeLa cells were cultured in DMEM (Gibco 11995), supplemented with 10% Heat-inactivated FBS (Gibco A38400-01) and 1% Penicillin/Streptomycin (Gibco 15140-122) at 37° C. with 5% CO2 in a humidified tissue culture incubator. Cells were seeded at 500 cells/well in 384-well, Poly-D-lysine-treated blackplates (Perkin Elmer 6007710) in 25 μL media lacking selection for 18-24 hours. Plates were spun at 300 g for 30 seconds and stored in the incubator overnight. After 24 hours, a 25 μL aliquot of compound-containing medium was added in each well, at a final top concentration of 10 μM test compound, with 3-fold dilutions, using DMSO alone as a negative control. Plates were then spun at 300×g for 3 minutes again and cultured at 37° C. with 5% CO2. After 72 hours, cell viability was quantified with CellTiter-Glo 2.0 (Promega). After equilibrating cell plates at room temperature for 30 minutes, 25 μL CellTiter-Glo 2.0 reagent was dispensed into each well. Plates were mixed on a shaker for 2 minutes at 500 rpm, followed by a 10-minute incubation at room temperature. Luminescence readings were measured with an EnVision Plate Reader (Perkin Elmer). Data was normalized to DMSO treated cell wells. A four-parameter non-linear regression curve fit was applied to dose-response data in Prism to determine the half maximal growth inhibitory concentration (GI50) of each compound.
In general terms: Cellular ATP, detected with luciferase, serves as a proxy for viable cell number.

For another experiment, the system named is HeLa cells (ATCC CCL-2). Nature of the experiment: Cellular growth inhibition assay, HeLa cells (Example 16). Type of experiment: cell-based. Particulars: Homo sapiens, 72 hours, CellTiter-Glo 2.0. As for the experimental part:
as §1, §2

The next experiment deals with T1, GSPT1 (Homo sapiens, UniProt P15170+Q96SW2).
T1 construct: host or cells: HEK293 LgBiT / GSPT1 HiBiT CRISPR knock-in
The experiment is described as follows: GSPT1 HiBiT degradation assay. Particulars: HEK293 LgBiT GSPT1 HiBiT cells, 6 hours. Type of experiment: cell-based. The text has this: Promega developed a HEK293 cell line that constitutively expresses LgBiT protein and GSPT1_HiBiT fusion protein. When both proteins are present, the HiBiT portion of the fusion protein combines with LgBiT protein to form a functional luciferase enzyme. Endurazine, a cell permeable small molecule, is converted by cellular esterases into furimazine, which the luciferase enzyme uses as a substrate to generate luminescence. When GSPT1 is degraded, the HiBit is also degraded. This prevents formation of fully functional luciferase, leading to a loss in luminescence. GSPT1 degradation therefore correlates with a decrease in luminescence and can be measured continuously over time. The concentration of compound at which 50% GSPT1 degradation occurs (DC50) may be calculated using this system.
HEK293 LgBiTGSPT1 HiBiT CRISPR Knock-in cells were cultured in DMEM Media supplemented with 10% Heat-inactivated FBS, 1% Penicillin/Streptomycin, 200 μg/mL hygromycin and stored in a humidified incubator set at 37° C. and 5% CO2. 18-24 hours prior to compound treatment, cells were seeded at 1000 cells/well in a 384-well tissue culture-treated white plates in 25 μL media lacking selection for 18-24 hours. The plates were spun at 300 g for 30 seconds and stored in the incubator overnight. After 24 hours, compounds are titrated in DMSO and added to media supplemented with endurazine substrate. A 25 μL aliquot of 2× compound/endurazine in media is then added to the 384-well microplate with seeded cells. (Endurazine is used at a final concentration of 0.5×). The plate was spun at 300 g for 30 seconds and stored in the incubator. After 6 hours, the plate was read on a Perkin Elmer MultiMode Plate Reader Envision 2105 to measure luminescence signal. Data were plotted in Prism (Graphpad) and the concentration of compound at which 50% GSPT1 degradation occurs (DC50) was calculated.
A general note: The HiBiT peptide binds its large partner to form an active luciferase.

The next experiment has as its target KRAS G12C (Homo sapiens, UniProt P01116, G12C). Nature of the experiment: KRAS G12C nucleotide exchange assay (SOS1-mediated, HTRF). Type of experiment: biochemical. Set-up: GST-tagged KRAS G12C (amino acids 2-169). Particulars: 1 hr pre-incubation. As for the experimental part:
KRAS target engagement (IC50 determination) was performed using a KRAS G12C nucleotide exchange assay. Specifically, compounds were tested against KRAS G12C in 10-point concentration IC50 mode with 3-fold serial dilution at a starting concentration of 10 μM. ARS1620 was used as a control.
Briefly, GST-tagged KRAS G12C (amino acids 2-169) was mixed with anti-GST Tb antibody (1.5× solution) and 10 μL was delivered to reaction wells. Compounds were delivered using an acoustic dispenser (Echo, Labcyte) and pre-incubated with protein for 1 hr at RT. KRAS/anti-GST Tb Ab/compound mixture was incubated for 1 hour at room temperature. A 3× solution of SOS1 (amino acids 564-1049) and GTP-DY-647P1 (GTP*) was prepared in reaction buffer. A 5 μL aliquot of SOS1/GTP* solution was added to reaction wells to initiate the exchange reaction. No-SOS1 reaction or max compound concentration was used as blank. The final concentrations of KRAS G12C, SOS1, and GTP* were 30 nM, 20 nM, and 0.15 μM, respectively. SOS1 mediated exchange of GDP to GTP-DY-647P was measured using HTRF (Ex/Em=(320-75/665-7.5; 615-8.5)) using an Envision Plate Reader (Perkin Elmer). IC50 determination was performed using a Sigmoidal dose response (variable slope) equation.

T1 sequence (P15170 whole entry): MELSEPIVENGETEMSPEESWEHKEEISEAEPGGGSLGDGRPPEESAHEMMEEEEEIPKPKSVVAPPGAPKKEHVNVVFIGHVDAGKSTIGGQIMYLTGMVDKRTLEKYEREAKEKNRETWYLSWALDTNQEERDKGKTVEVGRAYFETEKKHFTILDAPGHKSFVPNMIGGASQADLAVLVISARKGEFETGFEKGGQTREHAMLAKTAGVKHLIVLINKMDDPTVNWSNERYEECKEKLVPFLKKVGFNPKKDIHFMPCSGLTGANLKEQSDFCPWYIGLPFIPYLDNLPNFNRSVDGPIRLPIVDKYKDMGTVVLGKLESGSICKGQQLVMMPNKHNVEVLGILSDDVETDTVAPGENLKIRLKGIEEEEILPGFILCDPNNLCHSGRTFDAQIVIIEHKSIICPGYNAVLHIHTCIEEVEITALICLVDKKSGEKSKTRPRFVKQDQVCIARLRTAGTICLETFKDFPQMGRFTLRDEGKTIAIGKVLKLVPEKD
T1 sequence (Q96SW2 whole entry): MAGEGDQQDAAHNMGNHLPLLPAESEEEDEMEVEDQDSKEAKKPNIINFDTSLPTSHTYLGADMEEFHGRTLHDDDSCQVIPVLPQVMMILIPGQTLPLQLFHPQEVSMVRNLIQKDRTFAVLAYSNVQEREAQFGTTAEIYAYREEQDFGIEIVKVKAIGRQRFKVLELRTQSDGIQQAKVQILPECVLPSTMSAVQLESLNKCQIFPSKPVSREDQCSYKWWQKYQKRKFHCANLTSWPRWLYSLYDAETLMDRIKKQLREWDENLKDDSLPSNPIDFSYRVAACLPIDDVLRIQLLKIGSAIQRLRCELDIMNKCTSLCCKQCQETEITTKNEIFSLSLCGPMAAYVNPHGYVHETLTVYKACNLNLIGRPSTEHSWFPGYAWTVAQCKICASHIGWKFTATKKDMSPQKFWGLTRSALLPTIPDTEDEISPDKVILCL
T1 sequence (Q16531 whole entry partner): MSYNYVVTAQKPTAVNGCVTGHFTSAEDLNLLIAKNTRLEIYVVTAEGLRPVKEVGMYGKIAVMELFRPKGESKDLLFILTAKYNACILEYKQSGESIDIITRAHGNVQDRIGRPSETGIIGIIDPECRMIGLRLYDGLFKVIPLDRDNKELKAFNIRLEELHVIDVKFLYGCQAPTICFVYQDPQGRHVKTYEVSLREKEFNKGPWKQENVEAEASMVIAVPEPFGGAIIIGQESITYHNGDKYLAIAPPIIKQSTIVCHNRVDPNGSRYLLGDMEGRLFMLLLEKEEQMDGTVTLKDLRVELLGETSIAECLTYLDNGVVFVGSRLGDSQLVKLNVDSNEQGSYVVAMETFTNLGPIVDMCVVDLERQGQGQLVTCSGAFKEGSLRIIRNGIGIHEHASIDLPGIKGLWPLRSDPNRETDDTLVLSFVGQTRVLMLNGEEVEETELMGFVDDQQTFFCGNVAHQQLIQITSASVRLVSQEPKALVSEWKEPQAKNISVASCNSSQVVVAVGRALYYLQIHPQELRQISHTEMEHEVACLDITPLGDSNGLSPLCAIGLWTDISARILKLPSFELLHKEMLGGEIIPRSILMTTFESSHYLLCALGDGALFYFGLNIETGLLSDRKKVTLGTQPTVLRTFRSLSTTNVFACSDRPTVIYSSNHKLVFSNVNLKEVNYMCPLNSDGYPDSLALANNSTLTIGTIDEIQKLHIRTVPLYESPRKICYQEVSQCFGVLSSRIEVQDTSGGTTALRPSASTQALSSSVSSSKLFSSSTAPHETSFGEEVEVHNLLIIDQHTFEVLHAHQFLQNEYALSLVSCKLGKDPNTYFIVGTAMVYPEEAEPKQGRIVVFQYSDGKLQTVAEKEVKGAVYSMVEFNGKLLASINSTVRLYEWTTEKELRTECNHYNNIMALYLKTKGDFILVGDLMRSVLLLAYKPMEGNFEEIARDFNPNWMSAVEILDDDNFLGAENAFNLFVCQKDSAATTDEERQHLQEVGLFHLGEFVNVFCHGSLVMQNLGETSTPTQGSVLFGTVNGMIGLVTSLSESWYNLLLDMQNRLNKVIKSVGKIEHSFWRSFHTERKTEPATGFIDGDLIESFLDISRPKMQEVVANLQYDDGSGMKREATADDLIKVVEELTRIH
KRAS G12C, sequence (P01116 2-169 isoform P01116-2 G12C): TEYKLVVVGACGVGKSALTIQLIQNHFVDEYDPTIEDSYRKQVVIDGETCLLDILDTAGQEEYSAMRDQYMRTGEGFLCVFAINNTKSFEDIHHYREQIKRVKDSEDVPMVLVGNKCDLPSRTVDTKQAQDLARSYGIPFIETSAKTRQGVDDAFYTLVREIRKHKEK

Regarding `C=C(CN1C(=O)CCC(N2Cc3cc(CNC(=O)NCc4cccc(C(F)(F)F)c4O)ccc3C2=O)C1=O)C(=O)N1CCN(c2nc(OC[C@@H]3CCCN3C)nc3c2CCN(c2cccc4cccc(Cl)c24)C3)C[C@@H]1CC#N` (stereo in doubt) [Compound I-94], the GI50 in experiment [1] is 1.5 to 10 µM; with HeLa cells (ATCC CCL-2) it was > 10 µM.
For `C=C(CN1C(=O)CCC(N2Cc3cc(CNC(=O)Nc4ccc(C)c(Cl)c4)ccc3C2=O)C1=O)C(=O)N1CCN(c2nc(=O)n(-c3c(C)ccnc3C(C)C)c3nc(-c4c(O)cccc4F)c(F)cc23)[C@@H](C)C1` (stereo partly drawn) [Compound I-1, 1-(3-chloro-4-methyl-phenyl)-3-[[2-[1-[2-[(3S)-4-[6-fluoro-7-(2-fluoro-6-hydroxy-phenyl)-1-(2-isopropyl-4-methyl-3-pyridyl)-2-oxo-pyrido[2,3-d]pyrimidin-4-yl]-3-methyl-piperazine-1-carbonyl]allyl]-2,6-dioxo-3-piperidyl]-1-oxo-isoindolin-5-yl]methyl]urea], at GSPT1, the 50% degradation concentration (DC50) lay within 0.5 to 2.5 µM.
As for `C=C(CN1C(=O)CCC(N2Cc3cc(CNC(=O)Nc4ccc(C)c(Cl)c4)ccc3C2=O)C1=O)C(=O)N1CCN(c2nc(OC[C@@H]3CCCN3C)nc3c2CCN(c2cccc4cccc(Cl)c24)C3)C[C@@H]1CC#N` (stereo partly drawn) [Compound I-2, 1-(3-chloro-4-methyl-phenyl)-3-[[2-[1-[2-[(2S)-4-[7-(8-chloro-1-naphthyl)-2-[[(2S)-1-methylpyrrolidin-2-yl]methoxy]-6,8-dihydro-5H-pyrido[3,4-d]pyrimidin-4-yl]-2-(cyanomethyl)piperazine-1-carbonyl]allyl]-2,6-dioxo-3-piperidyl]-1-oxo-isoindolin-5-yl]methyl]urea], on KRAS G12C, the IC50 is > 10 µM. This compound showed a DC50 at GSPT1 of 0.05 to 0.5 µM.
For `C=C(CN(Cc1ccc2c(c1)CN(C1CCC(=O)NC1=O)C2=O)C(=O)Nc1ccc(C)c(Cl)c1)C(=O)N1CCN(c2nc(OC[C@@H]3CCCN3C)nc3c2CCN(c2cccc4cccc(Cl)c24)C3)C[C@@H]1CC#N` (stereo partly shown) [Compound I-33], the GI50 (in experiment [1]; in the experiment on HeLa cells (ATCC CCL-2)) was 1.5 to 10 µM in each case. Further, the DC50 at GSPT1 is > 2.5 µM.
As for `C=C(CN(C(=O)NCc1ccc2c(c1)CN(C1CCC(=O)NC1=O)C2=O)c1ccc(C)c(Cl)c1)C(=O)N1CCN(c2nc(OC[C@@H]3CCCN3C)nc3c2CCN(c2cccc4cccc(Cl)c24)C3)C[C@@H]1CC#N` (stereo partly shown) [Compound I-34], the GI50 was < 0.5 µM in experiment [1] and 1.5 to 10 µM in the experiment on HeLa cells (ATCC CCL-2). On GSPT1, this compound gave a half-maximal degradation concentration (DC50) of 0.05 to 0.5 µM.
In the case of `C=C(COc1ccc(CN2C(=O)CCC(N3Cc4cc(CNC(=O)Nc5ccc(C)c(Cl)c5)ccc4C3=O)C2=O)cc1)C(=O)N1CCC[C@@H](n2nc(-c3ccc(Oc4ccccc4)cc3)c3c(N)ncnc32)C1` (stereo partly shown) [Compound I-36], the GI50 (in experiment [1]; in the experiment on HeLa cells (ATCC CCL-2)) was > 10 µM throughout. Besides, at GSPT1, the DC50 is > 2.5 µM.
Regarding `C=C(CN(C(=O)NCc1ccc2c(c1)CN(C1CCC(=O)NC1=O)C2=O)c1cc(Cl)cc([N+](=O)[O-])c1)C(=O)N1CCC[C@@H](n2nc(-c3ccc(Oc4ccccc4)cc3)c3c(N)ncnc32)C1` (stereo partly shown) [Compound I-37], the 50% degradation concentration (DC50) at GSPT1 was > 2.5 µM.
For `C=C(CN(C(=O)NCc1ccc2c(c1)CN(C1CCC(=O)NC1=O)C2=O)c1ccc(OC)c(Cl)c1)C(=O)N1CCC[C@@H](n2nc(-c3ccc(Oc4ccccc4)cc3)c3c(N)ncnc32)C1` (stereo partly shown) [Compound I-39], the GI50 (in experiment [1]; with HeLa cells (ATCC CCL-2)) was > 10 µM throughout. Moreover, at GSPT1, the DC50 was > 2.5 µM.
In the case of `C=C(CN(C(=O)NCc1ccc2c(c1)CN(C1CCC(=O)NC1=O)C2=O)c1cc(Cl)cc(OC)c1)C(=O)N1CCC[C@@H](n2nc(-c3ccc(Oc4ccccc4)cc3)c3c(N)ncnc32)C1` (stereo partly shown) [Compound I-40], the GI50 (in experiment [1]; in the experiment with HeLa cells (ATCC CCL-2)) was > 10 µM in each case. Besides, the 50% degradation concentration (DC50) at GSPT1 was > 2.5 µM.
As to `C=C(COc1c(F)cc(CN2C(=O)CCC(N3Cc4cc(CNC(=O)Nc5ccc(C)c(Cl)c5)ccc4C3=O)C2=O)cc1F)C(=O)N1CCC[C@@H](n2nc(-c3ccc(Oc4ccccc4)cc3)c3c(N)ncnc32)C1` (stereo partly shown) [Compound I-51], the concentration for 50% growth inhibition (GI50) (in experiment [1]; with HeLa cells (ATCC CCL-2)) was > 10 µM each time. Besides, the DC50 on GSPT1 was > 2.5 µM.
Consider `C=C(COC(=O)NCc1cc(Cl)cc(NC(=O)NCc2ccc3c(c2)CN(C2CCC(=O)NC2=O)C3=O)c1)C(=O)N1CCC[C@@H](n2nc(-c3ccc(Oc4ccccc4)cc3)c3c(N)ncnc32)C1` (stereo partly drawn) [Compound I-53, 2-((R)-3-(4-amino-3-(4-phenoxyphenyl)-1H-pyrazolo[3,4-d]pyrimidin-1-yl)piperidine-1-carbonyl)allyl (3-chloro-5-(3-((2-(2,6-dioxopiperidin-3-yl)-1-oxoisoindolin-5-yl)methyl)ureido)benzyl)carbamate], for which the GI50 (in experiment [1]; with HeLa cells (ATCC CCL-2)) was 0.5 to 1.5 µM each time. The DC50 on GSPT1 lay in the range of 0.05 to 0.5 µM.
In the case of `C=C(COc1cccc(NC(=O)NCc2ccc3c(c2)CN(C2CCC(=O)NC2=O)C3=O)c1Cl)C(=O)N1CCN(c2nc(OC[C@@H]3CCCN3C)nc3c2CCN(c2cccc4cccc(Cl)c24)C3)C[C@@H]1CC#N` (stereo partly shown) [Compound I-91], the GI50 (in experiment [1]; with HeLa cells (ATCC CCL-2)) was > 10 µM each time.
On to `C=C(COc1ccc2c(Cl)c(NC(=O)NCc3ccc4c(c3)CN(C3CCC(=O)NC3=O)C4=O)ccc2c1)C(=O)N1CCN(c2nc(OC[C@@H]3CCCN3C)nc3c2CCN(c2cccc4cccc(Cl)c24)C3)C[C@@H]1CC#N` (stereo partly shown) [Compound I-92], for which the GI50 in experiment [1] was < 0.5 µM; in the experiment with HeLa cells (ATCC CCL-2) it was > 10 µM.
For `C=C(Cn1ccc2ccc(NC(=O)NCc3ccc4c(c3)CN(C3CCC(=O)NC3=O)C4=O)cc21)C(=O)N1CCN(c2nc(OC[C@@H]3CCCN3C)nc3c2CCN(c2cccc4cccc(Cl)c24)C3)C[C@@H]1CC#N` (stereo partly shown) [Compound I-93], in that order: 0.5 to 1.5 µM and 0.5 to 1.5 µM.
On to `C=C(COc1cc(NC(=O)NCc2ccc3c(c2)CN(C2CCC(=O)NC2=O)C3=O)cc(OC)c1Cl)C(=O)N1CCN(c2nc(OC[C@@H]3CCCN3C)nc3c2CCN(c2cccc4cccc(Cl)c24)C3)C[C@@H]1CC#N` (stereo partly shown) [Compound I-96], for which the GI50 (in experiment [1]; in the experiment on HeLa cells (ATCC CCL-2)) was > 10 µM throughout.
On to `C=C(COc1c(Cl)cccc1NC(=O)NCc1ccc2c(c1)CN(C1CCC(=O)NC1=O)C2=O)C(=O)N1CCC[C@@H](n2nc(-c3ccc(Oc4ccccc4)cc3)c3c(N)ncnc32)C1` (stereo partly shown) [Compound I-115], for which the GI50 lay within 1.5 to 10 µM in experiment [1] and 0.5 to 1.5 µM in the experiment on HeLa cells (ATCC CCL-2). Moreover, the DC50 at GSPT1 is < 0.05 µM.
For `C=C(COC(=O)NC1CCC(Nc2nc(NCc3ccc(-c4ccccn4)cc3)c3ncn(C(C)C)c3n2)CC1)C(=O)N1CCN(c2nc(OC[C@@H]3CCCN3C)nc3c2CCN(c2cccc4cccc(Cl)c24)C3)C[C@@H]1CC#N` (stereo partly shown) [II-192], the GI50 in experiment [1] was 0.5 to 1.5 µM; with HeLa cells (ATCC CCL-2), < 0.5 µM.

For orientation: GI50 means the concentration giving 50% growth inhibition. A higher GI50 goes with lower sensitivity of the cells. A word on the DC50: it is the concentration giving 50% degradation. Low values mean a more potent degrader, high ones a less potent degrader. By IC50 is commonly meant the concentration needed to halve the response being measured. A higher IC50 goes with weaker potency in that assay.

For the origin of these results see patent US20240408093A1, “HETEROBIFUNCTIONAL COMPOUNDS AND THEIR USE IN TREATING DISEASE” (HALDA THERAPEUTICS OPCO, INC., priority 2022, published 2024).
